According to US20240309090A1, “MODULATION OF ANDROGEN SIGNALING TO INNATE IMMUNE KILLING OF PROSTATE CANCER” (Brown University, priority 2023, published 2024):
“Also recorded” adds a separate entry of the source.

Key:
NK-92 cells = assay: Cytokine secretion of NK-92 monoculture (Luminex 200); assay type: cell-based; conditions: for NK-92 secretion of T cell chemokine CCL5: FIG. 13A (A6); for NK-92 cell secretion of IFN-γ / NK-92 cell secretion of IL-10 / NK-92 cell secretion of granzyme B: monoculture, DHT for 72 h before treatment, supernatant
Description: The secretion profile was assessed in monoculture conditions without the PCa cell lines.
The medium was collected 24 hours after treatment and stored at −80° C. until readout. Samples were shipped to Brown University to run them in biological duplicate on a Luminex 200 Instrument (R&D LX200-XPON-RUO), which captures cytokines on magnetic antibody-coated beads and measures cytokine levels using a system based on the principles of flow cytometry (see https:/www.luminexcorp.com/luminex-100200/#overviewfor more information). A custom […] panel was split into 34-plex and 18-plex assays (R&D LXSAHM) and was run on the Luminex 200 instrument according to the manufacturer's protocol.

[1] = tested on: PCa cell lines (DU145, 22Rv1, LNCaP, PC3); assay: Western blot of apoptotic and antiapoptotic proteins in PCa cell lines; assay type: cell-based; conditions: for expression of Bcl-XL: 22Rv1; for expression of c-IAP2: DU145 cells and LNCaP; for Survivin levels: LNCaP; for expression of MCL-1: any cell lines
Description: We investigated the effects of ARi on PCa cells' expression of Bcl-2 proteins and cytokine secretion to assess a possible priming effect of treatment, making these cells susceptible to NK cell killing. Enzalutamide (5, 10, and 15 μM) and darolutamide (10, 20 μM) reduced the expression of the X-linked inhibitor of apoptosis (XIAP) in DU145, 22Rv1, and LNCaP cell lines (FIG. 14A-B). Western Blot analysis of apoptotic and antiapoptotic proteins on the PCa cell lines with darolutamide (10 and 20 μM) and enzalutamide ([…]) for 48 h. Treatment with ARi on the PCa cell lines evidenced changes in both pro and antiapoptotic proteins, irrespective of ARi sensitivity. The changes in protein expression were not similar in the PCa cell lines and cannot explain a single mechanism of tumor cell priming for NK cell killing.
Anti-apoptotic proteins and androgen receptor expression in prostate cancer cell lines and immune cells (NK-92) were examined using a western blot. A total of 1×10^5 cells were plated and incubated in a 6 or 12-well plate ([…] 229111 and 229105) for 24 hours to allow the cells to adhere (tumor cells). Treatment conditions were added after cell adhesion or in conjunction with NK cells when these were analyzed. Cells were harvested and lysed using RIPA buffer containing protease inhibitor (Cell Signaling Technology 9806S) and phosphatase inhibitor (PHOSS-RO Roche 4906845001). Denaturing sample buffer was added, and samples were boiled at 95° C. for 10 minutes and an equal amount of protein lysate (10-20 ug) was electrophoresed through 4-12% SDS-PAGE gels (Invitrogen) and then transferred to PVDF membranes. The membrane was blocked with 5% milk in 1×TTBS and incubated overnight with the appropriate primary antibody (Cell Signaling c-IAP2 58C7 Rabbit mAb #3130; Cell Signaling XIAP Antibody #2042; Cell Signaling Mcl-1 (D2W9E) Rabbit mAb #94296; Cell Signaling Survivin (71G4B7) Rabbit mAb; Cell Signaling Ran Antibody #4462; Cell Signaling PARP 9542T mAb; Cell Signaling Bcl-2 Antibody #2876; Cell Signaling Bcl-xL (54H6) Rabbit mAb; Sigma Aldrich Monoclonal Anti-B-Actin antibody #A5441; Cell Signaling Androgen Receptor (E3S4N) Rabbit mAb (Carboxy-terminal Antigen) #70317). The primary antibody membranes were incubated in the appropriate HRP-conjugated secondary antibody (either mouse, Thermo Scientific #31430, or rabbit, Thermo Scientific #31460) for two hours. The levels of antibody binding were detected using ECL western blotting detection reagent and the Syngene imaging system.

PC3 = assay: Co-culture of GFP-expressing PC3 with patient-derived NK cells; assay type: cell-based, human; conditions: GFP PC3, 1:1, 24 h; monalizumab in combination with enza and daro
Description: To validate an additive effect of ARi and monalizumab enhancing NK cell cytotoxicity, we performed a co-culture assay with GFP-labeled PCa cell lines (including ARi-sensitive LNCaP and ARi-resistant PC3) and patient-derived NK cells. The NK cells were negatively selected from whole blood from patients with metastatic prostate cancer before initiation of androgen deprivation therapy. The addition of enzalutamide or darolutamide enhanced the cytotoxicity of NK cells, and the combination of ARi with monalizumab potentiated immune killing (FIG. 15C-D).
Prostate cancer cell lines were dyed with the blue CMAC live-cell dye (Thermo Fisher Scientific #C2110, per manufacturer protocol). Blue-fluorescent cancer cells were plated at a density of 10,000 cells per well of a 48-well plate. NK-92 cells were dyed with green CMFDA (Cayman Chemical Company #19583, per manufacturer protocol). Green-fluorescent NK-92 cells were added to the blue-fluorescent cancer cells at a 1:1 ratio. Enzalutamide (10 μM), darolutamide (20 μM), and 1 μM ethidium homodimer (EthD-1) were added at the same time as the NK cells. After 24 hours of co-culture, images of live cancer cells, live NK cells, and dead cells were taken using a fluorescent microscope. The co-culture experiments were run with internal control conditions and as a single treatment. Normalization was performed after analysis to take baseline death conditions into each experiment run. To optimize the high output of these experiments, a subset of co-cultures were performed using the ImageXpress® Micro Confocal High-Content Imaging. This analysis maintained the experiment conditions, drug concentrations, and the dyeing process. When GFP-labeled tumor cells were used for culture assays, they were added in a 1:1 ratio. Cell adhered over 24 h, and when patient-derived NK cells were added, a control well was trypsinized, and cells resuspended and counted to adjust a 1:1 ratio before treatment addition. The experiments with blocking antibodies were performed using the ImageXpress system. TRAIL blocking ab was purchased from Santa Cruz TRAIL Antibody (RIK-2): sc-56246, and IFN gamma blocking Monoclonal Antibody (NIB42, #6-7318-81) was purchased from Thermo Fisher. The blocking mAb was added when NK cells were combined with tumor cells.
NK cells were isolated from patients harboring metastatic castration-sensitive prostate cancer using the MojoSort™ Human NK Cell Isolation Kit (#480053). Patients signed informed consent for IRB-approved research protocol number 2055-13, allowing the collection of peripheral blood samples. […] The untouched NK cells (CD56+, CD3−) were collected, and the purity of isolation was determined by flow cytometry using anti-CD56 (BioLegend 362503). […]

[2] = DU145, 22Rv1, LNCaP, enzalutamide 5, 10, 15 μM, darolutamide 10, 20 μM, 48 h

`CC(O)c1cc(C(=O)N[C@@H](C)Cn2ccc(-c3ccc(C#N)c(Cl)c3)n2)n[nH]1` (some centres unmarked) [darolutamide] was tested, and the “NK-92 secretion of T cell chemokine CCL5” value (NK-92 cells) was “reduces”, the “NK-92 cell secretion of IFN-γ” value (NK-92 cells) was 45.6 pg/mL and the “NK-92 cell secretion of IL-10” value (NK-92 cells) was 15.24 pg/mL. The “NK-92 cell secretion of granzyme B” value (NK-92 cells) was 1599 pg/mL, the “expression of Bcl-XL” value [1] was “reduced” and the “expression of Bcl-XL” value ([1]; listed as Darolutamide) was “lower levels”. The “expression of XIAP” value [1, 2] was “reduced; also recorded: more pronounced”, the “expression of XIAP” value ([1]; DU145, 22Rv1, LNCaP, enzalutamide 5, 10, 15 μM, darolutamide 10, 20 μM, 48 h, listed as Darolutamide) was “reduced levels” and the “expression of c-IAP2” value [1] was “reduced”. The “expression of c-IAP2” value ([1]; listed as Darolutamide) was “reduced levels”, the Survivin levels [1] was “decreased” and the Survivin levels ([1]; listed as Darolutamide) was “lower levels”. For the same compound, the “expression of XIAP” value ([1]; PC3) was “did not change”, the “expression of MCL-1” value [1] was “no significant change” and the “killing of PCa cells by patient-derived NK cells (in words)” value (PC3) was “enhanced”.
In the case of `CNC(=O)c1ccc(N2C(=S)N(c3ccc(C#N)c(C(F)(F)F)c3)C(=O)C2(C)C)cc1F` [enzalutamide], the “NK-92 secretion of T cell chemokine CCL5” value (NK-92 cells) is reported as “reduces”, the “NK-92 cell secretion of IFN-γ” value (NK-92 cells) is reported as 48.88 pg/mL and the “NK-92 cell secretion of IL-10” value (NK-92 cells) is reported as 16.6 pg/mL. The “NK-92 cell secretion of granzyme B” value (NK-92 cells) was 1027 pg/mL, the “expression of Bcl-XL” value [1] was “reduced” and the “expression of Bcl-XL” value ([1]; listed as Enzalutamide) was “lower levels”. The “expression of XIAP” value [1, 2] was “reduced levels”, the “expression of c-IAP2” value [1] was “reduced” and the “expression of c-IAP2” value ([1]; listed as Enzalutamide) was “reduced levels”. The Survivin levels [1] was “decreased”, the Survivin levels ([1]; listed as Enzalutamide) was “lower levels” and the “expression of XIAP” value ([1]; PC3) was “did not change”. The “expression of MCL-1” value [1] was “no significant change” and the “killing of PCa cells by patient-derived NK cells (in words)” value (PC3) was “enhanced”.
